Laboratory results from ChEMBL document CHEMBL4825752, “1, 2-Dihexadecanoyl-sn-glycero-3-phosphoethanolamin (DPPE), doxorubicin and folic acid conjugated micelles for cancer management in tumor bearing BALB/c mice” (Bioorg Med Chem Lett, 2021).

Legend:
[1] = Toxicity in rat kidney assessed as glomerular necrosis by histopathological analysis; format: tissue-based; details: in vivo
[2] = Half life in single iv dosed BALB/c mouse by HPLC analysis; format: ADME, organism-based; details: in vivo
[3] = Toxicity in rat skeletal muscle assessed as widening of endomysium by histopathological analysis; format: tissue-based, Skeletal muscle tissue; details: in vivo
[4] = Toxicity in rat kidney assessed as tubular degeneration by histopathological analysis; format: tissue-based; details: in vivo
[5] = Toxicity in rat kidney assessed as congestion of glomeruli blood vessels by histopathological analysis; format: tissue-based; details: in vivo
[6] = Toxicity in rat skeletal muscle assessed as infiltration of inflammatory cells by histopathological analysis; format: tissue-based, Skeletal muscle tissue
[7] = Biodistribution in spleen of iv dosed tumor bearing BALB/c mouse; format: ADME, organism-based; details: in vivo
[8] = Toxicity in rat heart assessed as myocardial cell degeneration by histopathological analysis; format: tissue-based
[9] = Toxicity in rat liver assessed as microvesicular steatosis by histopathological analysis; format: tissue-based
[10] = Toxicity in tumor bearing BABL/c mouse assessed as median survival time at 5 mg/kg, iv (reference value: 7.5 day); format: organism-based; details: in vivo, 180 h
[11] = Biodistribution in heart of iv dosed tumor bearing BALB/c mouse; format: ADME, organism-based; details: in vivo
[12] = Toxicity in rat heart assessed as myocardial necrosis by histopathological analysis; format: tissue-based; details: in vivo
[13] = AUMC(0 to infinity) in single iv dosed BALB/c mouse by HPLC analysis; format: ADME, organism-based; details: in vivo
[14] = AUMC(0 to t) in single iv dosed BALB/c mouse by HPLC analysis; format: ADME, organism-based; details: in vivo
[15] = Toxicity in rat kidney assessed as epithelial degeneration by histopathological analysis; format: tissue-based; details: in vivo
[16] = Biodistribution in blood of single iv dosed tumor bearing BALB/c mouse; format: ADME, organism-based; details: in vivo
[17] = Toxicity in rat kidney assessed as tubular necrosis by histopathological analysis; format: tissue-based; details: in vivo
[18] = Mean residence time in single iv dosed BALB/c mouse by HPLC analysis; format: ADME, organism-based; details: in vivo
[19] = Toxicity in rat heart assessed as haemorrhage by histopathological analysis; format: tissue-based; details: in vivo
[20] = Biodistribution in liver of iv dosed tumor bearing BALB/c mouse; format: ADME, organism-based; details: in vivo
[21] = AUC(0 to t) in single iv dosed BALB/c mouse by HPLC analysis; format: ADME, organism-based; details: in vivo
[22] = Toxicity in rat liver assessed as hepatocytes degeneration by histopathological analysis
[23] = AUC(0 to infinity) in single iv dosed BALB/c mouse by HPLC analysis; format: ADME, organism-based; set-up: time infinity, route intravenous; details: in vivo
[24] = Biodistribution in kidney of iv dosed tumor bearing BALB/c mouse; format: ADME, organism-based; details: in vivo

COc1cccc2c1C(=O)c1c(O)c3c(c(O)c1C2=O)C[C@@](O)(C(=O)CO)C[C@@H]3O[C@H]1C[C@H](N)[C@H](O)[C@H](C)O1 [DOXORUBICIN]
Activity [1]: Toxic | t1/2 [2]: 2.09 h | Activity [3]: Toxic | Activity [4]: Toxic | Activity [5]: Toxic | Activity [6]: Toxic | Drug uptake [7]: Active | Activity [8]: Toxic | Activity [9]: Toxic | Activity [10]: Non-Toxic | MST [10]: 40 days | Drug uptake [11]: Active | Activity [12]: Toxic | AUMC [13]: 30.25 ug/ml.hr^2 | AUMCt [14]: 29.45 ug/ml.hr^2 | Activity [15]: Toxic | Drug uptake [16]: Active | Activity [17]: Toxic | MRT [18]: 3.1 h | Activity [19]: Toxic | Drug uptake [20]: Active | AUC(0-t) [21]: 11400 ng·h/mL | Activity [22]: Toxic | AUC(0-inf) [23]: 10400 ng·h/mL | Drug uptake [24]: Active
